Laboratory results published in patent US20200256869A1, “SYSTEMS AND METHODS FOR THE ASSESSMENT OF G-PROTEIN ACTIVATION” (UNIVERSITÉ DE MONTRÉAL, priority 2017, published 2020).

Legend:
Assay type in all cases: cell-based
D3R = target: T1, D3R (Homo sapiens, UniProt P35462); experiment: Gz activation by D3R, Rap1GAP (SSS-AAA)-RlucII translocation to PM (BRET)
T1 construct: expressed in transfected cells; host or cells: HEK293
Protocol: (§1) Cells were then directly seeded in 96-well plates pre-treated or not with poly-L-ornithine hydrobromide at a density of 35 000 cells per well. All experiments read in the Spark 10M reader were performed using non-treated plates.
(§2) BRET measurements 48-hours post transfection, cells were washed twice with pre-warmed Tyrode's buffer (140 mM NaCl, 2.7 mM KCl, 1 mM CaCl2, 12 mM NaHCO3, 5.6 mM D-glucose, 0.5 mM MgCl2, 0.37 mM NaH2PO4, 25 mM HEPES, pH 7.4) before being stimulated with various concentrations of ligands at either room temperature (RT) or 37° C., as indicated. The cell-permeable substrate, coelenterazine Purple I was added at a final concentration of 1 μM in Tyrode's buffer for at least 6 min (at 37° C.) to 10min (at RT) before BRET measurements.
(§3) Data Analysis. Estimation of the EC50 values were calculated using the GraphPad® Prism curve fitting program. The curves presented throughout this study, representing the best fits, and were also generated using this GraphPad® Prism program.

[1] = target: T2, Dopamine D4 receptor (D4R) (Homo sapiens, UniProt P21917); details: HEK293, Rap1GAP (SSS-AAA)-RlucII, rGFP-CAAX, Gz, read-out: EC50, Gz activation
T2 construct: signal peptide […]; host or cells: HEK293
T2 sequence (P21917 1-419): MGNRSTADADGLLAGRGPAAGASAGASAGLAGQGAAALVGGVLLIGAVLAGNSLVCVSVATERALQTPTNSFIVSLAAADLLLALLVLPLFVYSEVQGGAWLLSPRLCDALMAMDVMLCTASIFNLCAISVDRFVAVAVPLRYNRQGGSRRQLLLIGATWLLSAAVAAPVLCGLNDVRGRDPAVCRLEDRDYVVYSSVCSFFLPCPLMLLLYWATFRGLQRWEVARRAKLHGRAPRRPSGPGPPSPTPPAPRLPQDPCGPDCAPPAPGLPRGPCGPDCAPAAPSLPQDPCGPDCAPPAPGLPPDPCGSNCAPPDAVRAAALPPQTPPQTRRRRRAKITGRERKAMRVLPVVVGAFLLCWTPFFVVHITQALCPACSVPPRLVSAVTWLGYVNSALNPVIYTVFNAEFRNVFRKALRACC
Protocol: as §1, §2, §3

[2] = target: T3, thromboxane receptor (TPαR) (Homo sapiens, UniProt P21731); experiment: TPαR-mediated G12 activation at the PM, PDZRG-RlucII BRET
T3 construct: host or cells: HEK293
T3 sequence (P21731 1-343): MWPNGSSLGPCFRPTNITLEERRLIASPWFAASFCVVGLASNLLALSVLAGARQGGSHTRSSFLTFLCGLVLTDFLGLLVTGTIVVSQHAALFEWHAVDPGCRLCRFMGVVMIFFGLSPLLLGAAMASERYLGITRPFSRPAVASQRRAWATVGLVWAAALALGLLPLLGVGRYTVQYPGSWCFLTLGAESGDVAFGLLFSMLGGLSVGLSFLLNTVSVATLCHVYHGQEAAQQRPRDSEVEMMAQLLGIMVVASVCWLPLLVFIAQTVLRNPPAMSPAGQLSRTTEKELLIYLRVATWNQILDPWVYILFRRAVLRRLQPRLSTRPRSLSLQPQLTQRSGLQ
Excerpt: (§4) FIGS. 4D and 4E show DRCs of TPαR ligands on G12 (FIG. 4D) and 13 (FIG. 4E) activation at the PM using PDZRG-Rlucll. HEK293 cells cotransfected with thromboxane receptor (TPαR), PDZRG-Rlucll, rGFP-CAAX were stimulated with known full agonists (U46619, I-BOP, CTA2), with a partial agonist (U51605) and the antagonists I-SAP and SQ 29,558. Results were normalized and presented as % of I-BOP response (n=4) +/−SEM.
(§5) Transfection using Poly(ethylenimine) (PEI): Two days before the experiments, HEK293 cells were washed with PBS containing no calcium or magnesium, detached and transfected with the indicated plasmids using PEI as a transfecting agent (at a ratio of 3 to 1, PEI/DNA). Cells were then directly seeded in 96-well plates pre-treated or not with poly-L-ornithine hydrobromide at a density of 35 000 cells per well. All experiments read in the Spark 10M reader were performed using non-treated plates.
(§6) BRET measurements 48-hours post transfection, cells were washed twice with pre-warmed Tyrode's buffer (140 mM NaCl, 2.7 mM KCl, 1 mM CaCl2, 12 mM NaHCO3, 5.6 mM D-glucose, 0.5 mM MgCl2, 0.37 mM NaH2PO4, 25 mM HEPES, pH 7.4) before being stimulated with various concentrations of ligands at either room temperature (RT) or 37° C., as indicated. The cell-permeable substrate, coelenterazine Purple I was added at a final concentration of 1 μM in Tyrode's buffer for at least 6 min (at 37° C.) to 10min (at RT) before BRET measurements. Measurements were either taken on a Spark 10M reader (Tecan Life Sciences; donor: 360 nm/380 nm & acceptor: 505 nm/570 nm), a LB 941 multimode plate reader (Berthold Technologies; donor: 400/470-nm and acceptor: 515/520-nm filters) or a Synergy Neo (Biotek: (donor: 400/480 nm, acceptor: 515/530 nm). The BRET signal was determined by calculating the ratio of the light intensity emitted by the rGFP (acceptor) over the light intensity emitted by the Rlucll (donor). All the BRET measurements were performed at 37° C. in the Tristar reader (FIGS. 1-2M & FIGS. 2R-7F), at RT in a Spark 10M reader (FIGS. 2N-2Q & FIGS. 8B-8S) or at RT in a Synergy Neo (FIGS. 8T-8X).

[3] = target: T3, thromboxane receptor (TPαR); experiment: TPαR-mediated G13 activation at the PM, PDZRG-RlucII BRET
Excerpt: as §4, §5, §6

[4] = target: T3, thromboxane receptor (TPαR); experiment: TPαR-mediated G12 activation at the PM, P115RG-RlucII BRET
Excerpt: (§7) FIGS. 5B and 5C show DRCs of TPαR ligands on G12 (FIG. 5B) and G13 (FIG. 5C) activation at the PM using P115RG-Rlucll. HEK293 cells cotransfected with thromboxane receptor (TPαR), P115RG-Rlucll, rGFP-CAAX were stimulated with U46619, I-BOP, CTA2, U51605, I-SAP and SQ 29,558. Results were normalized and presented as % of I-BOP response (n=4) +/−SEM.
as §5, §6

[5] = target: T3, thromboxane receptor (TPαR); experiment: TPαR-mediated G13 activation at the PM, P115RG-RlucII BRET
Excerpt: as §7, §5, §6

[6] = target: T3, thromboxane receptor (TPαR); experiment: TPαR-mediated Gq activation at the PM, P63RG-RlucII BRET
Excerpt: (§8) FIGS. 6J-6M show DRCs of TPαR ligands on Gq (FIG. 6J), G11 (FIG. 6K), G14 (FIG. 6L) and G15 (FIG. 6M) activation at the PM using P63RG-Rlucll under the optimal conditions determined in FIGS. 6B-6E. HEK293 cells cotransfected with thromboxane receptor (TPαR), P63RG-Rlucll, rGFP-CAAX were stimulated with U46619, I-BOP, CTA2, U51605, I-SAP and SQ 29,558. Results were normalized and presented as % of I-BOP response (between n=3 and n=5) +/−SEM.
as §5, §6

[7] = target: T3, thromboxane receptor (TPαR); experiment: TPαR-mediated G11 activation at the PM, P63RG-RlucII BRET
Excerpt: as §8, §5, §6

[8] = target: T3, thromboxane receptor (TPαR); experiment: TPαR-mediated G14 activation at the PM, P63RG-RlucII BRET
Excerpt: as §8, §5, §6

[9] = target: T3, thromboxane receptor (TPαR); experiment: TPαR-mediated G15 activation at the PM, P63RG-RlucII BRET
Excerpt: as §8, §5, §6

D1R = target: T4, D1R (Homo sapiens, UniProt P21728); experiment: Gz activation by D1R, Rap1GAP (SSS-AAA)-RlucII translocation to PM (BRET)
T4 construct: expressed in transfected cells; host or cells: HEK293
T4 sequence (P21728 whole entry): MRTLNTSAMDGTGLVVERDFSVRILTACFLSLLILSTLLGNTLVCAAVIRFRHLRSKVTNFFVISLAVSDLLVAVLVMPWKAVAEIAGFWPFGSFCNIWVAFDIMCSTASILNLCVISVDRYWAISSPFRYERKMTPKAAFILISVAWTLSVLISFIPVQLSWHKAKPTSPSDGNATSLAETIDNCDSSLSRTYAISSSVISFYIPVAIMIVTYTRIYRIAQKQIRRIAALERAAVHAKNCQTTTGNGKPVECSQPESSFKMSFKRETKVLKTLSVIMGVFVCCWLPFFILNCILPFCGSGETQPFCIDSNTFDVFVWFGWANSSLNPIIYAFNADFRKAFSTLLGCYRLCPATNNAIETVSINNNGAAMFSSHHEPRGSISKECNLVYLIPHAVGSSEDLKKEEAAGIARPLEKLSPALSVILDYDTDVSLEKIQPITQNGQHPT
Protocol: as §1, §2, §3

D5R = target: T5, D5R (Homo sapiens, UniProt P21918); experiment: Gz activation by D5R, Rap1GAP (SSS-AAA)-RlucII translocation to PM (BRET)
T5 construct: expressed in transfected cells; host or cells: HEK293
T5 sequence (P21918 whole entry): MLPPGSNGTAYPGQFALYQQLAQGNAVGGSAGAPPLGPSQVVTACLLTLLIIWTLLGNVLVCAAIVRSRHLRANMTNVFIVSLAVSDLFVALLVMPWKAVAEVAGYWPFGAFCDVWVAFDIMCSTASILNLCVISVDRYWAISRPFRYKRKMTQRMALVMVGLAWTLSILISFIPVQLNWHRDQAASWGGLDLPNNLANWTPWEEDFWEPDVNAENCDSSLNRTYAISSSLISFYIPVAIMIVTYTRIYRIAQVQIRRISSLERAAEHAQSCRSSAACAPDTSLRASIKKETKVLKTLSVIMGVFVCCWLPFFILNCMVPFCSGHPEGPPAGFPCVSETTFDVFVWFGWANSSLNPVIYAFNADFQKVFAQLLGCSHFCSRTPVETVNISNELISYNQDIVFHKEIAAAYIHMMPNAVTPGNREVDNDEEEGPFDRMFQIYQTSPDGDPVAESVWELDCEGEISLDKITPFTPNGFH
Protocol: as §1, §2, §3

D2R = target: T6, D2R (Homo sapiens, UniProt P14416); experiment: Gz activation by D2R, Rap1GAP (SSS-AAA)-RlucII translocation to PM (BRET)
T6 construct: expressed in transfected cells; host or cells: HEK293
T6 sequence (P14416 whole entry): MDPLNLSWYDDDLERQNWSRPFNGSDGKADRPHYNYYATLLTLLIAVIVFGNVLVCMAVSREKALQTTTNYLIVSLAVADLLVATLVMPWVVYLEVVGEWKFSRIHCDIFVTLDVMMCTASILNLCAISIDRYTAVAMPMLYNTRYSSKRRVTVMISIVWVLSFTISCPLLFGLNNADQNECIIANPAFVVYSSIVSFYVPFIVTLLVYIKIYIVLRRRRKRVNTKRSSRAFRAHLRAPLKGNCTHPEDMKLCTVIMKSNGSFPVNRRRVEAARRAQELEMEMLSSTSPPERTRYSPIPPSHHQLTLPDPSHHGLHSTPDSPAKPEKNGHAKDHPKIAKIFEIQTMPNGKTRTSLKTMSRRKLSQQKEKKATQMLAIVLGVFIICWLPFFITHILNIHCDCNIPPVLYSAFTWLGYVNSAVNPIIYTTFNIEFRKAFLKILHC
Protocol: as §1, §2, §3

T1 sequence (P35462 whole entry): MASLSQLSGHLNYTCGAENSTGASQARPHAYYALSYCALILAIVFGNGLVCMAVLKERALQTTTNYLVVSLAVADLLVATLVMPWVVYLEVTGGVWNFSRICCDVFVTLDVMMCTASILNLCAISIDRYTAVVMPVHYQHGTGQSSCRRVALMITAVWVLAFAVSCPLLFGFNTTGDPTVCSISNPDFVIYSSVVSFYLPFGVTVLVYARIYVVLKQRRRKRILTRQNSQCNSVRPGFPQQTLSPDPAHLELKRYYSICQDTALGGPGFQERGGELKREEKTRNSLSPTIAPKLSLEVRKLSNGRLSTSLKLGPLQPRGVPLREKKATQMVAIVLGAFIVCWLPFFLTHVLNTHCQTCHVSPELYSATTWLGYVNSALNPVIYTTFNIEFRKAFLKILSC

SMILES	G12 activation, agonist character in words [2]	G13 activation, agonist character in words [3]	G12 activation, agonist character in words [4]	G13 activation, agonist character in words [5]	Gq activation, agonist character in words [6]	G11 activation, agonist character in words [7]	G14 activation, agonist character in words [8]	G15 activation, agonist character in words [9]	G13 activation, efficacy ([3]; normalized to I-BOP response)	G13 activation, efficacy ([5]; normalized to I-BOP response)	Gq activation, efficacy ([6]; rGFP-CAAX)	agonist properties (Gz activation), in words (D2R)	agonist properties (Gz activation), in words (D3R)	EC50 (D3R; HEK293, Rap1GAP (SSS-AAA)-RlucII, rGFP-CAAX, Gz) [nM]	EC50 [1] [nM]	agonist properties (Gz activation), in words (D1R)	agonist properties (Gz activation), in words (D5R)
Cc1cccc(NC(=O)CN2CCC(c3ccccn3)CC2)c1 [A412,997]														281	0.04		
CCCCC[C@H](O)/C=C/[C@H]1CC2CC(C2)[C@@H]1C/C=C\CCCC(=O)O [CTA2]	full agonists	full agonists	full agonists	full agonists	full agonists	full agonists	full agonists	full agonists									
O=C(O)CCC/C=C\C[C@@H]1[C@@H](/C=C/[C@@H](O)COc2ccc(I)cc2)[C@H]2CC[C@@H]1O2 [I-BOP]	full agonists	full agonists	full agonists	full agonists	full agonists	full agonists	full agonists	full agonists									
CC1(C)[C@@H]2C[C@H](NS(=O)(=O)c3ccc(I)cc3)[C@@H](C/C=C\CCCC(=O)O)[C@H]1C2 [I-SAP]	fails to induce significant G12 activation		neutral		fail to induce significant activation	fail to induce significant activation	fail to induce significant activation	fail to induce significant activation	53 % of Max	19 % of Max	7 % of I-BOP max response						
Cc1c(C2CCN(CCc3ccccc3)CC2)noc1-c1ccc(Cl)cc1 [L741,742]																did not show agonist nor inverse properties	did not show agonist nor inverse properties

Further lines, with some results ahead:

G12 activation, agonist character in words [2]	G13 activation, agonist character in words [3]	G12 activation, agonist character in words [4]	G13 activation, agonist character in words [5]	Gq activation, agonist character in words [6]	G11 activation, agonist character in words [7]	G14 activation, agonist character in words [8]	G15 activation, agonist character in words [9]	G13 activation, efficacy ([3]; normalized to I-BOP response)	G13 activation, efficacy ([5]; normalized to I-BOP response)	Gq activation, efficacy ([6]; rGFP-CAAX)	agonist properties (Gz activation), in words (D2R)	agonist properties (Gz activation), in words (D3R)	SMILES	EC50 (D3R; HEK293, Rap1GAP (SSS-AAA)-RlucII, rGFP-CAAX, Gz) [nM]	EC50 [1] [nM]	agonist properties (Gz activation), in words (D1R)	agonist properties (Gz activation), in words (D5R)
not acting as a TPαR agonist	not acting as a TPαR agonist	not acting as a TPαR agonist	not acting as a TPαR agonist	fail to induce significant activation	fail to induce significant activation	fail to induce significant activation	fail to induce significant activation						O=C(O)CCC/C=C\C[C@@H]1[C@H](CNNC(=O)Nc2ccccc2)[C@H]2CC[C@@H]1O2 [SQ 29,558]				
full agonists	full agonists	full agonists	full agonists	full agonists	full agonists	full agonists	full agonists						CCCCC[C@H](O)/C=C/[C@@H]1[C@@H](C/C=C\CCCC(=O)O)[C@H]2CO[C@@H]1C2 [U46619]				
											only showed agonist properties on D4R	only showed agonist properties on D4R	COc1ccccc1N1CCN(CCN(C(=O)C2CCCCC2)c2ccccn2)CC1 [WAY-100635]			only showed agonist properties on D4R	only showed agonist properties on D4R
